Results on two molecules are retold here after patent US10385024B2, “Compounds and methods for inhibiting NHE-mediated antiport in the treatment of disorders associated with fluid retention or salt overload and gastrointestinal tract disorders” (Ardelyx, Inc., priority 2012, dated 2019).

Data set [1] deals with T1, Rat NHE-3 (Rattus norvegicus, UniProt P26433).
T1 construct: expressed in transfected cells; host or cells: Opossum kidney (OK) cells (ATCC), transfected by electroporation
In words: Cell-based assay of NHE-3 activity (rat NHE-3 prompt inhibition). The settings on record: OK cells with rat NHE-3 gene, compound present during pH recovery. The gist of the method: (§1)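 Opossum kidney cells electroporated with rat or human NHE-3, loaded with 5 μM BCECF-AM in NH4Cl-HEPES pH 7.4 for 30 min at RT, then acidified 10 min in Na+-free choline HEPES. Na+-dependent pH recovery rates from BCECF fluorescence, averaged over ≥2 replicates, gave pIC50.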

The nature of another data set: Fecal recovery. Format: in vivo, Sprague Dawley rats. The settings on record: male, Sprague-Dawley, faeces; rat, 1 mg/kg oral gavage, collection time 48 h. How it is done:
Three male Sprague Dawley rats were administered 1 mg/kg test compound by oral gavage. Feces were collected from study animals from 0-48 or 0-72 hours after dosing, dried by lyophilization, and homogenized. Replicate aliquots of 40-60 mg each were subjected to extraction/protein precipitation with 7:1 acetonitrile:water and centrifuged. Supernatants were diluted 1:10 in 50:50 acetonitrile:water prior to analysis by LC-MS/MS. Compound concentrations, determined by interpolation from a standard calibration curve prepared in blank feces matrix, were converted to the percentage of dosed material recovered by taking into account the total collected fecal matter. The percent recovery for each rat was reported as the mean of the calculations from replicate samples. The overall percent recovery (Fecal Recovery [%]) was reported as the mean percent recovery from three rats. Accurate quality control sample recoveries were confirmed in each run, and extraction efficiency was periodically verified.

A short description of data set [2]: Pharmacokinetic evaluation in bile. Format: in vivo, Sprague-Dawley rats. To be noted: bile duct cannulated rats, oral gavage, nominal dose 30 mg/kg, bile collected over 24 h, mean of n=3. How it is done:
Bile duct cannulated (BDC) Sprague-Dawley rats were dosed with test compounds by oral gavage and a single aliquot of bile was collected via cannula over the 24 h following dosing. Bile samples were treated with acetonitrile and precipitated proteins were removed by centrifugation. Some compounds required liquid-liquid extraction using MTBE. After centrifugation, samples were diluted as appropriate in mobile phase and analyzed by LC-MS/MS. The concentrations of compounds in bile were determined by interpolation from a standard calibration curve prepared in rat bile from untreated BDC rats. Accurate recovery of quality control samples was confirmed to accept each analytical run. Concentration in bile is reported in nM and represents the mean result from n=3 rats.

In another data set the target is T2, human NHE-3 (Homo sapiens, UniProt P48764).
T2 construct: expressed in transfected cells; host or cells: Opossum kidney (OK) cells (ATCC), transfected by electroporation
T2 sequence (P48764 26-834): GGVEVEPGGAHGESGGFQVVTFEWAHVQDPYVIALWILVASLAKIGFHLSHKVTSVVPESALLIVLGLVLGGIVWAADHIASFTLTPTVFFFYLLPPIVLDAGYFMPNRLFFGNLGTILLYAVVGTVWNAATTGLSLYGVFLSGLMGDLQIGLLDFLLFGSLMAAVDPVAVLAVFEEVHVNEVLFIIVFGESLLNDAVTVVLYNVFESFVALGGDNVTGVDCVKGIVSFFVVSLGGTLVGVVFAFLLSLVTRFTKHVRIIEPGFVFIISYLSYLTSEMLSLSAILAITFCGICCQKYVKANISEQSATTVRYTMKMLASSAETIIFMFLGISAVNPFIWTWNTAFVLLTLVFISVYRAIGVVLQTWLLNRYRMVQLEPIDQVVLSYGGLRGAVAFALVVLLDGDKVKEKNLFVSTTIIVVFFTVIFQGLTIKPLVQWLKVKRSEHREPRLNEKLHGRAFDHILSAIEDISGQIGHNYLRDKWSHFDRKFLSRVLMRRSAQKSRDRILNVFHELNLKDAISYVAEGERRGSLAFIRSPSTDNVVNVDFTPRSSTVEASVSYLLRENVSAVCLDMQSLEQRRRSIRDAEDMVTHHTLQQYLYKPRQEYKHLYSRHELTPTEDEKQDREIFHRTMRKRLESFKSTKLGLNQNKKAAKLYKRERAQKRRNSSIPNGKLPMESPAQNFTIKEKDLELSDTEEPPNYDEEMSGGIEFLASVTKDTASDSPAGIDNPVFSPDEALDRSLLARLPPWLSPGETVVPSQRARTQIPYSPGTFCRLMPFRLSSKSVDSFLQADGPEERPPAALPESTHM
In words: Cell-based assay of NHE-3 activity (human NHE3 inhibition assay). To be noted: OK cells with human NHE-3 gene, BCECF pH dye, 0-30 μM test compound. Put shortly: as §1

Data set [3] deals with T1, Rat NHE-3. In words: Cell-based assay of NHE-3 activity (persistent inhibition, after washout). The settings on record: OK cells with rat NHE-3 gene, 60 min incubation, recovery initiated 40 min after compound washout. The gist of the method:
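OK cells transiently expressing rat NHE-3 were exposed to 0-30 μM compound in NaCl-HEPES pH 7.4 for 60 min, then washed free of drug before NH4Cl/BCECF-AM loading and acid-loading in Na+-free choline buffer. Na+-dependent pH recovery rates (mean of ≥2 replicates) gave pIC50.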

Another data set is described as follows: Plasma PK. The settings on record: Sprague-Dawley; rat plasma, oral gavage, nominal dose 30 mg/kg, mean of n=3, sampling 0.5-4 h. The data set is classed as in vivo, Sprague-Dawley rats. How it is done:
Sprague-Dawley rats (n=3) were dosed with test compounds by oral gavage. Blood was collected at 0.5, 1, 2 and 4 h via retro-orbital bleeds and processed to plasma using K2EDTA as an anticoagulant. Plasma samples were treated with acetonitrile containing an internal standard and precipitated proteins were removed by centrifugation. Supernatants were analyzed by LC-MS/MS and compound concentrations were determined by interpolation from a calibration curve prepared in plasma. Accurate recovery of quality control samples were confirmed to accept each analytical run.

T1 sequence (P26433 29-831): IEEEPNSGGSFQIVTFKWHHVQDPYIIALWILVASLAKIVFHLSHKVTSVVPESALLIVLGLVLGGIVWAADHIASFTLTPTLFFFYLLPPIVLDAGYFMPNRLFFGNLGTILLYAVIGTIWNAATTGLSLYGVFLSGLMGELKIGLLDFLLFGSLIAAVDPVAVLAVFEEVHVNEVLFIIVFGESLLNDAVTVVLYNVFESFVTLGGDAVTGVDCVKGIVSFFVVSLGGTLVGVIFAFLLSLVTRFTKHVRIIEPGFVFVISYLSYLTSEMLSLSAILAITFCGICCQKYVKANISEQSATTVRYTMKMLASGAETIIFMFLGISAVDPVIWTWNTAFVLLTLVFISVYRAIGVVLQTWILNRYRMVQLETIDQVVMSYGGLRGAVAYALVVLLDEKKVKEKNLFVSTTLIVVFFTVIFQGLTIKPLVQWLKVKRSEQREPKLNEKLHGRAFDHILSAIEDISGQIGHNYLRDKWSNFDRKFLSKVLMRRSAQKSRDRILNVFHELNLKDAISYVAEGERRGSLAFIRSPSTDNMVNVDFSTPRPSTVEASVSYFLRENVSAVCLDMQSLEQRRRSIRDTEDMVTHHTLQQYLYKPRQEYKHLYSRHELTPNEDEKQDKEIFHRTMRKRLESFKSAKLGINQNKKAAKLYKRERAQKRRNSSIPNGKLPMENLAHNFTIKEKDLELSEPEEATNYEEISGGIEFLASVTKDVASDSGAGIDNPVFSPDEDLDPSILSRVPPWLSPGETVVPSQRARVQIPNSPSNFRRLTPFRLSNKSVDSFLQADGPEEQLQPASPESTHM

`CN1Cc2c(Cl)cc(Cl)cc2[C@H](c2cccc(S(=O)(=O)NCCOCCOCCNC(=O)NCCC(N)(CCNC(=O)NCCOCCOCCNS(=O)(=O)c3cccc([C@@H]4CN(C)Cc5c(Cl)cc(Cl)cc54)c3)CCNC(=O)NCCOCCOCCNS(=O)(=O)c3cccc([C@@H]4CN(C)Cc5c(Cl)cc(Cl)cc54)c3)c2)C1` [Example 46, (S)—N,N′-(14-amino-14-(13-(3-((S)-6,8-dichloro-2-methyl-1,2,3,4-tetrahydroisoquinolin-4-yl)phenylsulfonamido)-4-oxo-8,11-dioxa-3,5-diazatridecyl)-10,18-dioxo-3,6,22,25-tetraoxa-9,11,17,19-tetraazaheptacosane-1,27-diyl)bis(3-((S)-6,8-dichloro-2-methyl-1,2,3,4-tetrahydroisoquinolin-4-yl)benzenesulfonamide)]: the IC50 on Rat NHE-3 [1] (read-out: Rat NHE3 pIC50 (prompt) (converted)), at human NHE-3 (read-out: Human NHE3 pIC50 (converted)) and at Rat NHE-3 [3] (read-out: Rat NHE3 pIC50 (persistent) (converted)) was less than 0.1 µM in each case. Further, in “Fecal recovery”, the dose excreted was 75.8%. Besides, the “Concentration in Bile” value in data set [2] was 3 nM.

Regarding `CN1Cc2c(Cl)cc(Cl)cc2[C@H](c2cccc(S(=O)(=O)NCCOCCOCCOCCNC(=O)NCCN(CCNC(=O)NCCOCCOCCOCCNS(=O)(=O)c3cccc([C@@H]4CN(C)Cc5c(Cl)cc(Cl)cc54)c3)CCNC(=O)NCCOCCOCCOCCNS(=O)(=O)c3cccc([C@@H]4CN(C)Cc5c(Cl)cc(Cl)cc54)c3)c2)C1` [Example 52], at Rat NHE-3 [1], the “Rat NHE3 pIC50 (prompt)” value is on record as “B (B NHE3 pIC50 5-7)”. In the data set “Plasma PK”, this molecule gave an AUC of less than 0.019 µg·h/mL and a Cmax of less than 5 ng/mL. Further, the “Human NHE3 pIC50” value at human NHE-3 was “C (C NHE3 pIC50 > 7)”. Besides, at Rat NHE-3 [3], the “Rat NHE3 pIC50 (persistent)” value was “C (C NHE3 pIC50 > 7)”.
